Assay results taken from ChEMBL document CHEMBL1158211, “Cyclic peptides from higher plants. 24.1 yunnanin C, a novel cyclic heptapeptide from Stellaria yunnanensis” (J Nat Prod, 1996).
In brackets after ≈: the same amount, converted by molar mass. Residues, ends and D or L forms follow the SMILES beside them.

Tested on: P388
Experiment: Cytotoxicity against mouse P388 cells after 48 hrs by MTT assay
Assay type: functional, cell-based
Settings: P388, 48 h

Structure (SMILES): O=C1CNC(=O)[C@H](Cc2ccc(O)cc2)NC(=O)CNC(=O)[C@@H]2CCCN2C(=O)[C@H](Cc2ccccc2)NC(=O)[C@@H]2CCCN2C(=O)CN1 [YUNNANIN A] (HELM PEPTIDE1{F.P.G.Y.G.G.P}$PEPTIDE1,PEPTIDE1,1:R1-7:R2$$$V2.0)
- IC50: 2.1 µg/mL (≈ 3.11 µM)

Structure (SMILES): CC[C@H](C)[C@@H]1NC(=O)CNC(=O)[C@@H]2CCCN2C(=O)[C@H](CO)NC(=O)[C@H](Cc2ccc(O)cc2)NC(=O)[C@H](Cc2ccccc2)NC(=O)CNC1=O [YUNNANIN C] (HELM PEPTIDE1{F.Y.S.P.G.I.G}$PEPTIDE1,PEPTIDE1,1:R1-7:R2$$$V2.0)
- IC50: 2.2 µg/mL (≈ 3.05 µM)
